Common to all, as to assay type: cell-based
The subject of one experiment is Hs578. The experiment can be described thus: Test A: Cytostatic Cell Culture Assay (GI50), Hs578. As to conditions: 120 h; Hs578 cells, 5 days, SRB; read-out: G150 Breast Hs578. The source says:
(§1) Test A: Cytostatic Cell Culture Assay (GI50)
(§2) This assay is based on quantification of cell counts by a calorimetric detection of the cell associated proteins. The assay relies on the ability of sulforhodamine B (SRB) to bind to protein components of cells that have been fixed to tissue-culture plates by trichloroacetic acid (TCA). SRB is a bright-pink aminoxanthene dye with two sulfonic groups that bind to basic amino-acid residues under mild acidic conditions, and dissociate under basic conditions. As the binding of SRB is stoichiometric, the amount of dye extracted from stained cells is directly proportional to the cell mass.
(§3) Cell lines: All cell lines are obtained from ATCC (Manassas, Va.). Cultivation media containing Glutanax, and trypsin are purchased from Invitrogen (Carlsbad, Calif.). Doxorubicin, Clofarabine, TCA and SRB are from Sigma-Aldrich (St. Louis, Mo.). Gemcitabine is obtained from Moravek Biochemicals (Brea, Calif.)
(§4) • 1. Trypsinize the sub-confluent cells, count them, and adjust the cell concentrations according to the cell counts listed in Table 1. • 2. Distribute the cells into the 96-well plates in 150 μL of media. Incubate the plates overnight in humidified CO2 incubator at 37° C. • 3. Fix one plate of each cell line with TCA. Discard the cultivation media from the plates by flicking them gently and add 100 μL cold 10% (vol/vol) TCA to each well. Incubate the plates at 4 degree refrigerator for 1 hour. Discard TCA from the plates by flicking them gently. Rinse plates four times in a washing basin containing tap water. Store the plates at room temperature. These plates represent cell counts on day zero. • 4. Prepare a set of medium solutions containing various concentrations of tested compounds by making 5-fold serial dilutions in 96-well plate. Add 50 μL of the diluted compounds per well. Include controls with untreated cells and cells treated with doxorubicin, clofarabine and gemcitabine. • 5. Incubate the plates for 5 days at 37° C. • 6. Fix the plates with TCA. Discard the cultivation media from the plates by flicking them gently and add 100 μL cold 10% (vol/vol) TCA to each well. Incubate the plates at 4 degree refrigerator for 1 hour. Discard TCA from the plates by flicking them gently. Rinse plates four times in a washing basin containing tap water. • 7. Remove excess water by tapping the plates face down, gently on a paper towel. Allow the plates to air-dry at room temperature. • 8. Add 100 μL of 0.057% SRB solution in 1% (vol/vol) acetic acid to each well of the plates fixed with TCA on day zero and five. Leave at room temperature for 30 minutes. • 9. Flick the plates gently to discard SRB. Rinse the plates four times with 1% (vol/vol) Acetic Acid. • 10. Store the plates at 370 incubator to facilitate faster drying. • 11. Once the plates are completely dry, add 200 μL of 10 mM Tris base solution (pH 10.5) to each well. Leave at room temperature for 30 minutes for SRB to solubilize. • 12. Measure the OD at 500 nm in a microplate reader. • 13. Calculate the percentage of cell-growth inhibition using the next formula: % of control cell growth=100×(ODsample−mean ODday0)/(ODneg control−mean ODday0)
(§5) For GI50 determination, plot a dose-response curves between the compound concentration and percent of growth inhibition. GI50 values can be derived by fitting dose-response curves using sigmoidal dose response equation.

For the next experiment, the system named is A549. The experiment can be described thus: Test A: Cytostatic Cell Culture Assay (GI50), A549. As to conditions: Homo sapiens, 120 h; A549 cells, 5 days, SRB; read-out: G150 Lung A549.
Description: as §1, §2, §3, §4, §5

Another experiment concerns PC3. The experiment can be described thus: Test A: Cytostatic Cell Culture Assay (GI50), PC3. As to conditions: Homo sapiens, PC-3, 120 h; PC3 cells, 5 days, SRB; read-out: G150 Prostate PC3.
Description: as §1, §2, §3, §4, §5

The next experiment relates to NCIH23. The experiment can be described thus: Test A: Cytostatic Cell Culture Assay (GI50), NCIH23. To be noted: Homo sapiens, NCI-H23, 120 h; NCIH23 cells, 5 days, SRB; read-out: G150 Lung NCIH23.
Description: as §1, §2, §3, §4, §5

The subject of the next experiment is HCT116. Kind of experiment: Test A: Cytostatic Cell Culture Assay (GI50), HCT116. As to conditions: Homo sapiens, HCT-116, 120 h; HCT116 cells, 5 days, SRB; read-out: G150 Colon HCT116.
Description: as §1, §2, §3, §4, §5

Another experiment concerns HCT15. Kind of experiment: Test A: Cytostatic Cell Culture Assay (GI50), HCT15. To be noted: Homo sapiens, HCT-15, 120 h; HCT15 cells, 5 days, SRB; read-out: G150 Colon HCT15.
Description: as §1, §2, §3, §4, §5

A further experiment relates to Du145. The experiment can be described thus: Test A: Cytostatic Cell Culture Assay (GI50), Du145. As to conditions: Homo sapiens, DU-145, 120 h; Du145 cells, 5 days, SRB; read-out: G150 Prostate Du145.
Description: as §1, §2, §3, §4, §5

Where only a bound is given, the exact number is not on record here.

Regarding `OC[C@H]1O[C@@H](n2cc(F)c3c(-c4nccs4)ncnc32)[C@H](O)[C@@H]1O` [Example 25, 5-Fluoro-7-(β-D-ribofuranosyl)-4-(thiazol-2-yl)-7H-pyrrolo[2,3-d]pyrimidine], the IC50 in the experiment on Hs578 is 566 nM; in the experiment on A549, 902 nM; with PC3 it was 175 nM; with NCIH23, 4980 nM; with HCT116 it was 1260 nM; with HCT15 it was 361 nM. Also, the IC50 with Du145 was 24 nM.

For the compound `OC[C@H]1O[C@@H](n2cc(Cl)c3c(-c4ccccc4)ncnc32)[C@H](O)[C@@H]1O` [Example 28, 5-Chloro-4-phenyl-7-(β-D-ribofuranosyl)-7H-pyrrolo[2,3-d]pyrimidine], the IC50 was 13200 nM in the experiment on Hs578; 2470 nM in the experiment with A549; 263 nM in the experiment with PC3; 5020 nM with NCIH23; 1420 nM with HCT116; 290 nM in the experiment with HCT15. Besides, in the experiment with Du145, the IC50 is 138 nM.

Regarding `OC[C@H]1O[C@@H](n2cc(F)c3c(-c4cc[nH]c4)ncnc32)[C@H](O)[C@@H]1O` [Example 27, 5-Fluoro-7-(β-D-ribofuranosyl)-4-(pyrrol-3-yl)-7H-pyrrolo[2,3-d]pyrimidine], the IC50 in the experiment with Hs578 was determined as 356 nM; in the experiment with A549 it was 126 nM; in the experiment with PC3, 60 nM; in the experiment on NCIH23 it was 1600 nM; with HCT116, 255 nM; in the experiment on HCT15, 65 nM. For the same compound, in the experiment with Du145, the IC50 was found to be 10 nM.

With `OC[C@H]1O[C@@H](n2ccc3c(-c4ccn[nH]4)ncnc32)[C@H](O)[C@@H]1O` [Example 16], the IC50 was 3940 nM in the experiment with Hs578; 3250 nM with A549; 560 nM with PC3; 3230 nM in the experiment with NCIH23; 7310 nM in the experiment with HCT116; 1060 nM with HCT15. Also, the IC50 in the experiment with Du145 worked out at 409 nM.

Turning to `OC[C@H]1O[C@@H](n2ccc3c(-c4cn[nH]c4)ncnc32)[C@H](O)[C@@H]1O` [Example 17, 4-(1H-Pyrazol-4-yl)-7-(β-D-ribofuranosyl)-7H-pyrrolo[2,3-d]pyrimidine], the IC50 with Hs578 was 3060 nM; in the experiment with A549, 6230 nM; with PC3, 427 nM; with NCIH23, 5230 nM; in the experiment on HCT116, 5680 nM; with HCT15, 674 nM. Further, the IC50 in the experiment on Du145 was determined as 75 nM.

Consider `OC[C@H]1O[C@@H](n2cc(Cl)c3c(-c4cccs4)ncnc32)[C@H](O)[C@@H]1O` [Example 30, 5-Chloro-7-(β-D-ribofuranosyl)-4-(thiophen-2-yl)-7H-pyrrolo[2,3-d]pyrimidine], for which the IC50 in the experiment on Hs578 worked out at 1640 nM; in the experiment with A549, 375 nM; in the experiment with PC3, 35 nM; in the experiment with NCIH23, 2020 nM; in the experiment on HCT116, 275 nM; with HCT15 it was 81 nM. For the same compound, in the experiment with Du145, the IC50 amounted to 13 nM.

With `OC[C@H]1O[C@@H](n2cc(F)c3c(-c4ccc[nH]4)ncnc32)[C@H](O)[C@@H]1O` [Example 22], the IC50 was found to be 315 nM in the experiment with Hs578; 195 nM in the experiment with A549; 176 nM in the experiment with PC3; 2610 nM in the experiment with NCIH23; 453 nM with HCT116; 111 nM in the experiment with HCT15. For the same compound, the IC50 in the experiment with Du145 came to 9 nM.

For the compound `OCc1ncnc2c1ccn2[C@@H]1O[C@H](CO)[C@@H](O)[C@H]1O` [Example 11, 4-Hydroxymethyl-7-(β-D-ribofuranosyl)-7H-pyrrolo[2,3-d]pyrimidine], the IC50 in the experiment with Hs578 was 53 nM; with A549, 252 nM; in the experiment with PC3, 52 nM; in the experiment on NCIH23 it was 28 nM; in the experiment on HCT116, 447 nM; in the experiment with HCT15 it was 30 nM. Moreover, in the experiment with Du145, the IC50 is 30 nM.

For `OC[C@H]1O[C@@H](n2ccc3c(Cc4ccccc4)ncnc32)[C@H](O)[C@@H]1O` [Example 2, 4-Benzyl-7-(β-D-ribofuranosyl)-7H-pyrrolo[2,3-d]pyrimidine], the IC50 in the experiment on Hs578 was more than 20000 nM; in the experiment on A549, more than 20000 nM; in the experiment with HCT116 it was more than 20000 nM; in the experiment with Du145 it was 15700 nM.

For `OC[C@H]1O[C@@H](n2cc(F)c3c(-c4c[nH]cn4)ncnc32)[C@H](O)[C@@H]1O` [Example 26, 5-Fluoro-4-(1H-imidazol-4-yl)-7-(β-D-ribofuranosyl)-7H-pyrrolo[2,3-d]pyrimidine], the IC50 was 2110 nM in the experiment on Hs578; more than 20000 nM in the experiment with A549; 2110 nM with PC3; 7620 nM with NCIH23; more than 20000 nM in the experiment on HCT116; 3590 nM in the experiment on HCT15. In addition, in the experiment on Du145, the IC50 is 887 nM.

For the compound `OC[C@H]1O[C@@H](n2ccc3c(-c4nccs4)ncnc32)[C@H](O)[C@@H]1O` [Example 8, 7-(β-D-Ribofuranosyl)-4-(thiazol-2-yl)-7H-pyrrolo[2,3-d]pyrimidine], the IC50 with Hs578 worked out at 294 nM; in the experiment on A549, 409 nM; in the experiment on PC3, 104 nM; in the experiment with NCIH23 it was 4390 nM; in the experiment with HCT116, 484 nM; in the experiment on HCT15 it was 208 nM. Also, the IC50 with Du145 is 19 nM.

On to `OC[C@H]1O[C@@H](n2cc(F)c3c(-c4ccccc4)ncnc32)[C@H](O)[C@@H]1O` [Example 19, 5-Fluoro-4-phenyl-7-(β-D-ribofuranosyl)-7H-pyrrolo[2,3-d]pyrimidine], for which the IC50 with Hs578 is 19200 nM; in the experiment on A549 it was 12900 nM; with HCT116, more than 20000 nM; with Du145, 581 nM.

On to `OC[C@H]1O[C@@H](n2ccc3c(-c4cccnc4)ncnc32)[C@H](O)[C@@H]1O` [Example 10], for which the IC50 in the experiment with Hs578, in the experiment with A549, in the experiment on PC3, in the experiment on NCIH23, with HCT116 and in the experiment with HCT15 was more than 20000 nM throughout. In addition, the IC50 in the experiment with Du145 was more than 20000 nM.

Consider `COc1ccc(-c2ncnc3c2ccn3[C@@H]2O[C@H](CO)[C@@H](O)[C@H]2O)cc1` [Example 3, 4-(4-Methoxyphenyl)-7-(β-D-ribofuranosyl)-7H-pyrrolo[2,3-d]pyrimidine], for which the IC50 in the experiment on Hs578 was more than 20000 nM; with A549, more than 20000 nM; in the experiment with HCT116, more than 20000 nM; in the experiment with Du145, 1310 nM.

With `CCc1ncnc2c1ccn2[C@@H]1O[C@H](CO)[C@@H](O)[C@H]1O` [Example 1, 4-Ethyl-7-(β-D-ribofuranosyl)-7H-pyrrolo[2,3-d]pyrimidine], the IC50 with Hs578 turned out to be 4680 nM; with A549, 4400 nM; with HCT116, 2560 nM; in the experiment with Du145 it was 1240 nM.

Turning to `OC[C@H]1O[C@@H](n2ccc3c(-c4ccccn4)ncnc32)[C@H](O)[C@@H]1O` [Example 18, 4-(Pyridin-2-yl)-7-(β-D-ribofuranosyl)-7H-pyrrolo[2,3-d]pyrimidine], the IC50 in the experiment with Hs578 was more than 20000 nM; with A549, 4860 nM; with HCT116 it was more than 20000 nM; with Du145 it was 387 nM.

With `OC[C@H]1O[C@@H](n2ccc3c(-c4ccc(F)cc4)ncnc32)[C@H](O)[C@@H]1O` [Example 4, 4-(4-Fluorophenyl)-7-(β-D-ribofuranosyl)-7H-pyrrolo[2,3-d]pyrimidine], the IC50 was 2520 nM with Hs578, more than 20000 nM in the experiment with A549, more than 20000 nM in the experiment on HCT116 and 729 nM in the experiment on Du145.

Values taken from patent publication US8093226B2, “Cytostatic 7-deazapurine nucleosides” (Institute of Organic Chemistry and Biochemistry of the …, priority 2008, dated 2012).
